We go through 87 molecules from a melting point compilation (Tetko et al.; mined from patent text by program, amines drawn as free bases though some values may be those of a salt).

The structures appear in SMILES notation.

The term melting point denotes the temperature of the solid-liquid transition. On to `COc1cc(O)c(C(=O)c2ccccc2)cc1S(=O)(=O)Cl`, for which the melting point lay within 165 to 172 °C.

The molecule `COc1ccc(COC(=O)NCCc2c[nH]c3ccccc23)cc1` returned a melting point of 108 to 109 °C.

In turn, `O=C(O)c1ccc(S(=O)(=O)n2c(=O)[nH]c3cc(Cl)ccc3c2=O)cc1` had a melting point above 200 °C.

For the molecule `CCOC(=O)C(CCCCOc1ccccc1)C(=O)O` (configuration not stated), the melting point fell in the range of 69 to 72 °C.

Molecule `Cc1csc(C2=C(c3ccc(S(C)(=O)=O)cc3)CCC2)c1` registered a melting point of 138 to 139 °C.

`CCOCCS(=O)(=O)C(F)(F)C(O)(Cn1cncn1)c1ccc(F)cc1F` (configuration not stated) displayed a melting point of 89 to 91 °C.

Consider `COc1ccc(OCc2ccccc2)cc1CBr`, for which the melting point lay within 88 to 90 °C.

`Cc1ccc(S(=O)(=O)N[C@@H](C)C(=O)N[C@@H](Cc2ccccc2)C(=O)OCc2ccccc2)cc1` displayed a melting point of 109 to 110 °C.

For `CS(=O)(=O)Nc1ccc(C(=O)N[C@@H](Cc2ccc(-c3ccccc3C(F)(F)F)cc2)C(=O)O)c(Cl)c1`, the melting point turned out to be 114 °C.

The molecule `CCN(C(=O)SC(C)(C)C)c1cn(-c2cccnc2)nc1Cl` gave a melting point of 91 to 93 °C.

In turn, `COc1cc(N)c(Cl)cc1C(=O)NC1CCN(CCn2c(=O)[nH]c3ccccc3c2=O)CC1OC` (configuration not stated) showed a melting point of 271 °C.

The molecule `Cc1ccc(S(=O)(=O)n2ccc3c(-c4c(C)nc5ccc(Cl)nn45)ccnc32)cc1` registered a melting point of 138 to 140 °C.

Turning to `CC(C)(C)c1coc2c(-c3ccc(F)cc3)c(-c3ccc(S(C)(=O)=O)cc3)nn12`, the melting point fell in the range of 181 to 182 °C.

On to `Cc1cn2ccccc2c1[N+](=O)[O-]`, for which the melting point is 137 to 139 °C.

As to `CS(=O)(=O)c1ccc(C2=C(c3ccc(F)cc3)C(=O)N(C3CC3)C2)cc1`, the melting point is 170 to 172 °C.

Regarding `CC(=O)Nc1ccc(CNC(=O)c2cccnc2Oc2ccc(F)cc2)cc1`, the melting point was in the range of 128 to 130 °C.

`O=C1Nc2cccnc2N(CC#CCN2CCCC2)c2ccccc21`: the melting point was 153 °C.

For the molecule `O=C1CN(C(=O)CN2CC(c3ccc(Cl)cc3)CC2=O)CCN1` (configuration not stated), the melting point lay in the range of 205 to 207 °C.

`CC(=O)c1ccc(Nc2cccc(-c3cncnc3)c2)c([N+](=O)[O-])c1` came in with a melting point of 131 to 132 °C.

Regarding `O=C1COCC2=C1C(c1ccc(F)c(Br)c1)C1=C(CCS1(=O)=O)N2` (configuration not stated), the melting point was above 260 °C.

With `O=C1C[C@@H](O)C[C@H](/C=C/c2ccccc2)O1` (relative stereo), the melting point lay in the range of 94 to 95 °C.

Turning to `CC(=O)CC1(C)C=NC=CN1c1ccccc1` (configuration not stated), the melting point lay within 67 to 68 °C.

With `CCOC(=O)COc1cccc(C2C(C(=O)OCC)=C(C)NC(C)=C2C(=O)OCC)c1`, the melting point was found to be 108 °C.

In turn, `COc1cc(Nc2c(C#N)cnc3cc(-c4cscc4CN4CCOCC4)ccc23)c(Cl)cc1Cl` showed a melting point of 188 to 190 °C.

The molecule `CCn1ccc(OC2c3cc(C#N)ccc3OC(C)(C)C2(C)O)cc1=O` (configuration not stated) displayed a melting point of 166 to 168 °C.

With `O=C(Nc1ccc(Cl)cn1)c1cc(F)ccc1NCC1CCNCC1`, the melting point lay within 230 to 233 °C.

Molecule `CC(C)S(=O)(=O)n1c(N)nc2ccc(C(=CBr)c3ccccc3)cc21` showed a melting point of 180 to 182 °C.

For the molecule `Oc1ccc2c(c1)cc1n2CCC1`, the melting point lay within 116 to 118 °C.

With `O=C(Nc1cccc(CC(F)(F)F)c1)Nc1ccc2c(c1)COC2=O`, the melting point is 279 to 282 °C.

`O=C(CCCCN1CCCCC1)c1ccc2c(c1)Cc1cc(C(=O)CCCCN3CCCCC3)ccc1-2`: the melting point is 124 to 127 °C.

The molecule `CCNSc1ccc([N+](=O)[O-])cc1C(Cl)(Cl)Cl` showed a melting point of 80 °C.

`Cc1c(O)ccc2c1CCCC2=O` displayed a melting point of 195 to 197 °C.

Turning to `CO/C=C(/C(=O)OC)c1ccccc1COc1nc(C(F)(F)F)sc1C`, the melting point was 59 °C.

As for `COc1cc(C(=O)NCC(=O)O)ccc1NS(=O)(=O)c1sc2ccc(Cl)cc2c1C`, the melting point lay in the range of 282 to 285 °C.

The molecule `C[C@]1(COc2ccc3nc(N4CCN(Cc5ccc(OC(F)(F)F)cc5)CC4)sc3c2)Cn2cc([N+](=O)[O-])nc2O1` showed a melting point of 206 to 207 °C.

`CCOC(=O)Cc1ccccc1N(C(=O)CNC(=O)Nc1cccc(C)c1)c1ccccc1` registered a melting point of 120 °C.

Molecule `OCCc1ccc(OCc2ccc3ccccc3n2)cc1` gave a melting point of 145 °C.

With `CC1=C(C)C(=O)N(c2ccc(C)c(NS(=O)(=O)C(F)(F)F)c2)C1=O`, the melting point fell in the range of 152 to 154 °C.

Molecule `Cc1cccc2c(C(=O)O)c(O)c(-c3ccc(-c4ccccc4)cc3)nc12` had a melting point of 178 to 180 °C.

`CSc1[nH]n(-c2c(Cl)cc(Cl)cc2Cl)c2nc(Cc3cccc(O)c3)nc(=O)c1-2` showed a melting point of 264 to 266 °C.

`COc1ccc2ncc([N+](=O)[O-])c(Nc3ccccc3Cl)c2c1` showed a melting point of 163 to 165 °C.

Take `CC12CCC3=C4CCC(=O)C=C4CCC3C1C=CC2=O` (configuration not stated): the melting point fell in the range of 182 to 183 °C.

For the molecule `COC(=O)C(CCCNC(=N)N[N+](=O)[O-])NC(=O)CCCC(=O)NCc1ccccc1` (single isomer, unassigned; (-)), the melting point is 97 to 99 °C.

Take `CCc1cc2c(OC)ccc(C)c2nc1Cl`: the melting point was 101 to 102 °C.

In turn, `CS(=O)(=O)c1ccc(-c2cnn(CC(F)=C(F)F)c(=O)c2-c2ccc(F)cc2)cc1` displayed a melting point of 154 to 156 °C.

`Fc1c(F)c(F)c(C(Cl)=NNc2ccccc2)c(F)c1F`: the melting point was 117 to 118 °C.

For the molecule `NC(=O)CNC(=O)c1cc(-c2cccc3cc(Cc4cc(F)cc(Cl)c4)sc23)ccn1`, the melting point lay in the range of 157 to 158 °C.

Turning to `CC(Sc1nc2ccc(N)cc2s1)C(=O)NCCN(C)Cc1ccc(Cl)c(Cl)c1` (configuration not stated), the melting point lay in the range of 97 to 100 °C.

Turning to `COc1ccc(NC(=O)c2ccc(-c3ccc(-c4noc(C)n4)cc3C)cc2)cc1C=CCN(C)C`, the melting point lay within 220 to 221 °C.

Turning to `CCOC(=O)c1ccc2c(O)c(C(=O)OCC)c(=O)n(C)c2n1`, the melting point lay within 174 to 175 °C.

Molecule `CCc1c(CO)oc2ccc(Br)cc12` showed a melting point of 93 to 94 °C.

`Fc1ccc2cc(C3CCNCC3)sc2c1` gave a melting point of 115 to 120 °C.

`NC(=O)C1=CCCc2cc(Sc3ccccc3)cc(F)c21` came in with a melting point of 224 to 226 °C.

Consider `CCCCC(Cc1ccc(OCCNC(=O)c2ccc(-c3cccc(OC)c3)cc2)cc1)C(=O)O` (configuration not stated), for which the melting point lay within 107 to 109 °C.

In turn, `O=c1ncc(Cl)cn1CCCl` had a melting point of 167 to 168 °C.

Molecule `CC(C)(C)C1CC(CCC(=O)O)(CCC(=O)O)C(=O)C(CCC(=O)O)(CCC(=O)O)C1` showed a melting point of 209 to 212 °C.

As to `COC(=C(C#N)C(=O)C(C)(C)C)c1ccc(Cl)cc1[N+](=O)[O-]`, the melting point was in the range of 130 to 131 °C.

`CN1CCC(c2c[nH]c3ccc(OS(=O)(=O)c4ccc(F)c(F)c4F)cc23)CC1` came in with a melting point of 160 to 162 °C.

`O=C(COc1cc(-c2ccc([N+](=O)[O-])cc2)nc2ccccc12)N1CCOCC1` gave a melting point of 172 °C.

As to `Cc1oc(COc2ccc(/C=C/CO)cc2)nc1-c1ccccc1`, the melting point was in the range of 154 to 155 °C.

Turning to `CN(O)CCCCc1ccc2c(c1)C(=O)c1sccc1CO2`, the melting point is 107 to 108 °C.

`COc1cc([N+](=O)[O-])c(N)cc1C(=O)N1CCCC1` came in with a melting point of 159 to 162 °C.

`CC(=O)Oc1cnc2c(OC(C)=O)cccc2c1` displayed a melting point of 101 to 102 °C.

The molecule `O=C1c2ccccc2C(=O)N1CCCCc1ccccc1` yielded a melting point of 87 to 90 °C.

For the molecule `Cc1coc(NC(=O)C(c2ccccc2)c2ccccc2)n1`, the melting point was in the range of 209 to 211 °C.

The molecule `Cc1ccc(CSC2=C(O)CC(C)(C)CC2=O)cc1` returned a melting point of 100 to 102 °C.

In turn, `Fc1ccc2c(CCN=c3sc4ccccc4s3)c[nH]c2c1` returned a melting point of 193 °C.

Regarding `COc1nc(C)nc(NNC(N)=NS(=O)(=O)c2ccccc2OC(F)(F)F)n1`, the melting point was 245 °C.

For `CS(=O)(=O)N1CCCC(Nc2nccc(-n3nnc4ccccc43)n2)C1` (configuration not stated), the melting point lay within 196 to 197 °C.

The molecule `Cc1nc(C)nc(-c2cccc(-c3ccccc3C)n2)n1` yielded a melting point of 86.8 °C.

For the molecule `COc1ccc(-c2cc(C#N)c[nH]2)c(OC)c1`, the melting point lay in the range of 129 to 130 °C.

Molecule `CC(C)C1COC(c2ccccc2CO)=N1` (configuration not stated) had a melting point of 62 to 72 °C.

Molecule `COc1cc(COc2nn(-c3ccccc3)cc2/C=C2\SC(=O)NC2=O)ccc1OCc1nc(-c2ccco2)oc1C` registered a melting point of 252 to 253 °C.

Consider `C[C@@H]1S[C@@H](C(=O)Nc2ccc(CN3CCC(=O)CC3)cc2)Cc2cc3c(cc2C1=O)OCO3`, for which the melting point lay in the range of 199 to 201 °C.

Molecule `CCC1CCCCN1C(=O)C=Cc1c(-c2ccncc2)nn2ccccc12` (configuration not stated) yielded a melting point of 150 to 153 °C.

`CN(C(=O)c1ccc(Cn2cnc3c(Cl)nc(Cl)nc32)cc1)C1CCCCC1` showed a melting point of 134 to 136 °C.

The molecule `CCCc1c(O)ccc2c1OC(C)(CCC(N)=O)CC2=O` (configuration not stated) had a melting point of 108 to 115 °C.

Molecule `Cn1nc(CC2CC2)c2sc(Cc3cccc(C(F)(F)F)c3)c(O)c2c1=O` gave a melting point of 92 to 93 °C.

In turn, `CS(=O)(=O)c1ccc(C(=O)c2cnoc2C2CC2)c(Cl)c1-c1nccs1` came in with a melting point of 153 to 155 °C.

`COc1ccc([N+](=O)[O-])c(C#N)c1CBr`: the melting point fell in the range of 137 to 138 °C.

Molecule `CCCN(Cc1cccc(C(=N)N)c1)C(=O)Nc1ccc(-c2ccccc2S(N)(=O)=O)cc1` yielded a melting point of 166 to 167 °C.

As to `COc1ccnc(CCc2nc3cc(-c4ccoc4)cnc3[nH]2)c1`, the melting point is 193 to 194 °C.

Turning to `CC(C(=O)N(C)C)n1ccc(-c2c(Cl)cccc2Cl)n1` (configuration not stated), the melting point was 88 to 90 °C.

As for `CCCCNS(=O)(=O)c1ccc(S(N)(=O)=O)cc1`, the melting point was 164 to 167 °C.

The molecule `O=C(O)c1ccc(NC(=O)C(CC2CCCC2)c2cccc(Cl)c2)nc1` (configuration not stated) registered a melting point of 251 to 255 °C.

Take `CCOC(=O)c1ccc(C(=O)Nc2ccc3c(c2)CCCC(=O)N3C)cc1`: the melting point lay in the range of 184 to 185 °C.

On to `Fc1ccc(F)c(C(Sc2ccc(Cl)cc2)c2ccncc2Cl)c1` (configuration not stated), for which the melting point lay within 70 to 72 °C.
